Laboratory results from PMC8414802, “Hair Cell Generation in Cochlear Culture Models Mediated by Novel γ-Secretase Inhibitors” (Frontiers in Cell and Developmental Biology, 2021).
Like-named read-outs stand apart in the source and are kept apart here.

What was measured:
[1] = tested on: Notch-dependent expression of ATOH1 in LS174T cells; assay: ATOH1 expression induction in LS174T cell line by GSIs (RT-PCR); type: cell-based, human; settings: GSI treatment 72 h, fold-change vs 0.05% DMSO, read-out: IC50 for ATOH1 expression upregulation
Description: The human colon cancer cell line LS174T (CL-188; ATCC) was cultured without antibiotics in 1% FBS/Eagle’s Minimum Essential Medium (MEM; Thermo Fisher) ([Asakura et al., 2018]). […]
Cells or tissue were lysed using RLT Lysis Buffer (Qiagen) and high purity RNA was prepared on the MagNA Pure instrument using MagNA Pure 96 Cellular RNA LV Kit (Roche). Reagents from Thermo Fisher were used for cDNA synthesis by reverse transcription using random hexamers. Resulting cDNA was RNAse H treated and amplified by TaqMan GEX mastermix and PCR primers and probes for human ATOH1 (Hs00944192_s1) and TBP (Hs00427620_m1), mouse Tbp (Mm00446971_m1), Atoh1 (Mm00476035_s1), Hes5 (Mm00439311_g1), Pouf4s (Mm04213795_s1), and Myo7a (Mm01274015_m1) on the Applied Biosystems QuantStudio 7 Flex Real-Time PCR System. Normalized to Tbp, relative gene expression fold-change was quantified and compared between experimental and control conditions by ΔΔCt calculation.
Statistical analysis was performed with GraphPad Prism software (Prism9; GraphPad Software Inc., San Diego, CA, United States). For explant cultures, when the number of explants/replicates was not sufficient to test for Gaussian distribution normal distribution of the data was assumed based on previous experiments ([Perny et al., 2017]; [Erni et al., 2019]). Alternatively, the distribution of the datasets was tested by D’Agostino and Pearson normality test. Unpaired t-tests were used to compare parametric data sets of two groups. Welch’s correction was applied if variances were not equal. For non-parametric data, the Mann–Whitney test was adopted. One-way ANOVA was used to determine the difference in means among multiple groups and multiple comparison correction was tested. Graphs indicate the single data point, the mean values ± standard deviation. IC50s were calculated by non-linear regression of data normalized by percent change from controls to compare multiple experiments. Differences in IC50s from Best fit data were compared by Least Squares (F-test; Extra sum of squares; alpha = 0.05).
To measure the relative potency between different GSIs, a pharmacological assay was initially used to identify the dose ranges effective to induce ATOH1 expression. The cell line LS174T, a human colorectal adenocarcinoma, was used to evaluate Notch-dependent expression of ATOH1 ([Kazanjian et al., 2010]). Two compounds from Eli Lilly, designated LY3056480 (CPD3) and LY3056359 (CPD8) (Figures 1A,B) were compared with the commercially available GSIs LY411575 and DAPT. […] The intermediate potency of CPD3 and 8 was likely to be adequate to achieve levels above the IC50 after dilution into perilymph in the inner ear.

[2] = tested on: Myo7a+ hair cells in rat cochlear organoids; assay: Rat cochlear organoids, hair cell differentiation; type: cell-based; settings: for Total hair cells per organoid prior to normalization: end of differentiation, GSI 5 μM
Description: On day 0, the cochlear sensory epithelium was dissected and the OC was separated from the modiolus and stria vascularis, as described above, from either Wistar rat pups (P2), Lgr5-GFP mice (P0–P2) or Atoh1-GFP mice (P0–P2). To separate the sensory epithelial layer from underlying mesenchyme and neurons, the OC was placed in a 100 μl drop of Matrisperse Cell Recovery Solution (Corning) for 1 h at RT, then delaminated with the aid of forceps. Gentle enzymatic dissociation of hair cells and supporting cells followed with 100 μl drop of TrypLE (Gibco), 20 min at 37°C, then mechanical trituration in DMEM/F12. The cell suspension was centrifuged for 5 min at 500 g at 4°C and resuspended in DMEM/F12 medium supplemented with B27 and N2 (Invitrogen), EGF (50 ng/ml), bFGF (50 ng/ml), IGF (25 ng/ml), CHIR99021 (GSK-3β inhibitor, 3 μM, Merck), valproic acid (HDAC inhibitor, 1 mM, Sigma), 2-phospho-L-ascorbic acid (280 μM, Stemcell Technologies) and 0.01% ampicillin (Sigma). Cells were plated at 2,000 cells per well on 96 wells plate (Corning Costar; ultra-low attachment, round-bottom) to allow aggregation at 37°C. On day 1, Matrigel (GF-depleted, Corning; 2% stock) was added to a final concentration of 0.18 mg/ml. On day 3, cells were transferred to 24 wells plate (ultra-low attachment; Corning Costar), pooling the organoid aggregates from 4 to 5 wells (96 well-plate) to one 24-well, culturing at 37°C and exchanging half medium and Matrigel every other day, On day 10, organoids were differentiated by replacing medium with DMEM/F12 supplemented with B27, N2, CHIR99021 (3 μM), and Notch inhibitors CPD3 (5 μM) or LY411575 (5 μM), and culture was continued as above for another 10 days.
For staining and imaging, organoids were allowed to adhere ON onto transwell-permeable support membranes (Corning) in 12-well plates coated with 100% Matrigel. […] Compiled Z-projections were processed (FIJI, ver2.0) and hair cells quantified on individual planes with manual cell counter plugin, by evaluation of cytosolic expression and nuclear exclusion of Myo7a. […]

| Structure (SMILES) | IC50 ([1]; Homo sapiens) [nM] | Hair cell numbers during differentiation ([2]; diff D20 vs exp D10, p < 0.05) | Total hair cells per organoid prior to normalization [2] | IC50 [1] [nM] |
| --- | --- | --- | --- | --- |
| COc1ccc2c(c1)N1CCC(C)(C)C1=CC(=O)[C@H]2NC(=O)[C@H](C)NC(=O)CCC(F)(F)F [CPD3] | 17.3 | significantly increased | 22.8 ± 18.0 |  |
| C[C@H](NC(=O)[C@@H](O)c1cc(F)cc(F)c1)C(=O)N[C@@H]1C(=O)N(C)c2ccccc2-c2ccccc21 [LY411575] |  |  | 17.17 ± 20.9 | 0.4 |
